Test results published in ChEMBL document CHEMBL1128638, “Probing the hydrophobic pocket of the active site of aromatase with 4-phenoxy-7 alpha-(phenylthio)-4-androstene-3,17-dione” (J Med Chem, 1995).

What follows are compounds tested against T1, Aromatase (Homo sapiens, UniProt P11511) (assay: Inhibition of Cytochrome P450 19A1).
T1 sequence (P11511 whole entry): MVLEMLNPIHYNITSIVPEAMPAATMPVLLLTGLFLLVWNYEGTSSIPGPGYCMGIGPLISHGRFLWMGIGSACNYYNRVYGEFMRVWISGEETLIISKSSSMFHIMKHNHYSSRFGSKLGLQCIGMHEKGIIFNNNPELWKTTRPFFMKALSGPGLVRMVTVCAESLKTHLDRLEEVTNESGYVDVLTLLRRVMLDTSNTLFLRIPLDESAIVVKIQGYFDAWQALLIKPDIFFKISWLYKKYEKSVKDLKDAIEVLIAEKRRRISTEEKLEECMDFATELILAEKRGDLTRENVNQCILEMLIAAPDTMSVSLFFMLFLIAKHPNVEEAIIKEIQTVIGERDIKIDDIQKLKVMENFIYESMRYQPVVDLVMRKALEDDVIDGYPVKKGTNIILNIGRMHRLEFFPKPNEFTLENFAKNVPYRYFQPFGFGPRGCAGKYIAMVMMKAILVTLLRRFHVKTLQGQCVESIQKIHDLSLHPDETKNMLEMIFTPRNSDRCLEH

SMILES	IC50 [nM]
CC12CCC3C(CCC4=C(Oc5ccccc5)C(=O)CCC43C)C1CCC2=O (centres undefined)	530
CC12CCC3C(C1CCC2=O)[C@H](Sc1ccccc1)CC1=C(Oc2ccccc2)C(=O)CCC13C (some centres undefined)	1650
CC12CCC3C(CCC4=C(Sc5ccccc5)C(=O)CCC43C)C1CCC2=O (centres undefined)	190
C[C@]12CCC(=O)C=C1C[C@@H](Sc1ccccc1)[C@@H]1[C@@H]2CC[C@]2(C)C(=O)CC[C@@H]12	650
